# Key:
# [1] = test system: AVEFA; experiment: greenhouse test, pre-emergence treatment; format: in vivo, Avena fatua; conditions: 6.25 g/ha a.s., Use Example 6
# Description: (§1) The culture containers used were plastic pots containing loamy sand with approximately 3.0% of humus as substrate. The seeds of the test plants were sown separately for each species.
# (§2) For the pre-emergence treatment, the active compounds, suspended or emulsified in water, were applied directly after sowing by means of finely distributing nozzles. The containers were irrigated gently to promote germination and growth and subsequently covered with transparent plastic hoods until the plants had rooted. This cover caused uniform germination of the test plants unless this was adversely affected by the active compounds.
# (§3) Depending on the species, the plants were kept at 10-25° C. and 20-35° C., respectively. The test period extended over 2 to 4 weeks. During this time, the plants were tended and their response to the individual treatments was evaluated.
# (§4) Evaluation was carried out using a scale from 0 to 100. 100 means no emergence of the plants, or complete destruction of at least the above-ground parts, and 0 means no damage or normal course of growth. Good herbicidal activity is given at values of at least 70, and very good herbicidal activity is given at values of at least 85. […]
# (§5) The test period extended over 20 or 21 days. During this time, the plants were tended, and their reactions to the treatment with active compound was monitored.
# (§6) What was evaluated was the damage by the chemical compositions using a scale of from 0 to 100%, in comparison to the untreated control plants. […]
# (§7) In the examples below, using the method of S. R. Colby (1967) “Calculating synergistic and antagonistic responses of herbicide combinations”, Weeds 15, p. 22 ff., the value E, which is expected if the activity of the individual active compounds is only additive, was calculated. […]
# (§8) If the value found in experiments is higher than the value E calculated according to Colby, a synergistic effect is present.
# [2] = test system: POAAN; experiment: greenhouse test, pre-emergence treatment; format: in vivo, Poa annua; conditions: 6.25 g/ha a.s., Use Example 6
# Description: as §1, §2, §3
# (§9) Evaluation was carried out using a scale from 0 to 100. 100 means no emergence of the plants, or complete destruction of at least the above-ground parts, and 0 means no damage or normal course of growth. Good herbicidal activity is given at values of at least 70, and very good herbicidal activity is given at values of at least 85.
# (§10) The respective stated components A and B, and if appropriate, C were formulated as a 5% by weight or 10% by weight strength emulsion concentrate or a commercially available formulation of component B was used and, with addition of the amount of solvent system, introduced into the spray liquor used for applying the active compound. In the examples, the solvent used was water.
# as §5
# (§11) What was evaluated was the damage by the chemical compositions using a scale of from 0 to 100%, in comparison to the untreated control plants. 0 means no damage, and 100 means complete destruction of the plants.
# (§12) In the examples below, using the method of S. R. Colby (1967) “Calculating synergistic and antagonistic responses of herbicide combinations”, Weeds 15, p. 22 ff., the value E, which is expected if the activity of the individual active compounds is only additive, was calculated.
# (§13) where X=percent activity using active compound A at an application rate a; Y=percent activity using active compound B at an application rate b; E=expected activity (in %) by A+B at application rates a+b.
# as §8
# [3] = test system: LOLMU; experiment: greenhouse test, pre-emergence treatment; format: in vivo, Lolium multiflorum
# Description: as §1, §2, §3, §9, §10, §5, §11, §12, §13, §8
# [4] = test system: ALOMY; experiment: greenhouse test, pre-emergence treatment; format: in vivo, Alopecurus myosuroides
# Description: as §1, §2, §3, §9, §10, §5, §11, §12, §13, §8
# [5] = test system: LAMPU; experiment: greenhouse test, pre-emergence treatment; format: in vivo, Lamium purpureum
# Description: as §1, §2, §3, §9, §10, §5, §11, §12, §13, §8
# [6] = test system: APESV; experiment: greenhouse test, pre-emergence treatment; format: in vivo, Apera spica-venti; conditions: 32 g/ha a.s., Use Example 21
# Description: as §1, §2, §3, §9, §10, §5, §11, §12, §13, §8
# [7] = test system: SETVI; experiment: greenhouse test, post-emergence treatment; format: in vivo, Setaria viridis
# Procedure: as §1
# (§14) For the post-emergence treatment, the test plants were grown to a plant height of from 3 to 15 cm, depending on the plant habit, and only then treated with the active compounds which had been suspended or emulsified in water. To this end, the test plants were either sown directly and grown in the same containers, or they were first grown separately as seedlings and transplanted into the test containers a few days prior to treatment.
# as §3, §9, §10, §5, §11, §12, §13, §8
# [8] = test system: DIGSA; experiment: greenhouse test, post-emergence treatment; format: in vivo, Digitaria sanguinalis; conditions: 125 g/ha a.s., Use Example 18
# Procedure: as §1, §14, §3, §4, §5, §6, §7, §8
# [9] = test system: PANDI; experiment: greenhouse test, pre-emergence treatment; format: in vivo, Panicum dichotomiflorum; conditions: Use Example 3
# Description: as §1, §2, §3, §4, §5, §6, §7, §8
# [10] = test system: CCHEC; experiment: greenhouse test, pre-emergence treatment; format: in vivo, Cenchrus echinatus; conditions: Use Example 3
# Description: as §1, §2, §3, §9, §10, §5, §11, §12, §13, §8
# [11] = test system: ALOMY; experiment: greenhouse test, post-emergence treatment; format: in vivo, Alopecurus myosuroides; conditions: Use Example 17
# Procedure: as §1, §14, §3, §9, §10, §5, §11, §12, §13, §8
# [12] = test system: LOLMU; experiment: greenhouse test, post-emergence treatment; format: in vivo, Lolium multiflorum; conditions: Use Example 17
# Procedure: as §1, §14, §3, §9, §10, §5, §11, §12, §13, §8
# [13] = test system: ECHCG; experiment: greenhouse test, pre-emergence treatment; format: in vivo, Echinochloa crus-galli; conditions: Use Example 22
# Description: as §1, §2, §3, §9, §10, §5, §11, §12, §13, §8
# [14] = test system: BRAPL; experiment: greenhouse test, pre-emergence treatment; format: in vivo, Brachiaria plantaginea; conditions: Use Example 12
# Description: as §1, §2, §3, §9, §10, §5, §11, §12, §13, §8
# [15] = test system: DIGSA; experiment: greenhouse test, pre-emergence treatment; format: in vivo, Digitaria sanguinalis; conditions: Use Example 22
# Description: as §1, §2, §3, §9, §10, §5, §11, §12, §13, §8
# [16] = test system: SETVI; experiment: greenhouse test, pre-emergence treatment; format: in vivo, Setaria viridis; conditions: 25 g/ha a.s., Use Example 11
# Description: as §1, §2
# Depending on the species, the plants were kept at 10-25° C. and 20-35° C., respectively. […] During this time, the plants were tended and their response to the individual treatments was evaluated. […]
# as §5, §6, §7
# [17] = test system: SETFA; experiment: greenhouse test, pre-emergence treatment; format: in vivo, Setaria faberi
# Description: as §1, §2, §3, §9, §10, §5, §11, §12, §13, §8
# [18] = test system: SOLNI; experiment: greenhouse test, pre-emergence treatment; format: in vivo, Solanum nigrum L.; conditions: Use Example 22
# Description: as §1, §2, §3, §9, §10, §5, §11, §12, §13, §8
structure (smiles),measurement,setting,value
"CC(C)N(C)S(=O)(=O)NC(=O)c1cc(-n2c(=O)cc(C(F)(F)F)n(C)c2=O)c(F)cc1Cl [2-chloro-5-[3,6-dihydro-3-methyl-2,6-dioxo-4-(trifluoromethyl)-1(2H)-pyrimidinyl]-4-fluoro-N-[(isopropyl)methylsulfamoyl]benzamide, reference compound]",Herbicidal action in % after 20 days against AVEFA,[1],0%
same,Herbicidal action in % after 20 days against POAAN,[2],0%
"CC(C)N(C(=O)COc1nnc(C(F)(F)F)s1)c1ccc(F)cc1 [Flufenacet, reference compound]",Herbicidal action in % after 20 days against LOLMU,"[3]; 32 g/ha a.s., Use Example 21",65%
same,Herbicidal action in % after 20 days against LOLMU,"[3]; 62.5 g/ha a.s., Use Example 13",40%
same,Herbicidal action in % after 20 days against LOLMU,"[3]; 125 g/ha a.s., Use Example 13",70%
same,Herbicidal action in % after 20 days against ALOMY,"[4]; 32 g/ha a.s., Use Example 21",70%
same,Herbicidal action in % after 20 days against ALOMY,"[4]; 62.5 g/ha a.s., Use Example 13",75%
same,Herbicidal action in % after 20 days against ALOMY,"[4]; 125 g/ha a.s., Use Example 13",90%
same,Herbicidal action in % after 20 days against LAMPU,"[5]; 32 g/ha a.s., Use Example 21",20%
same,Herbicidal action in % after 20 days against APESV,[6],95%
same,Herbicidal action in % after 20 days against SETVI,"[7]; 125 g/ha a.s., Use Example 18",70%
same,Herbicidal action in % after 20 days against DIGSA,[8],75%
CCc1cnc(C2=NC(C)(C(C)C)C(=O)N2)c(C(=O)O)c1 (stereo not drawn) [Imazethapyr],Herbicidal action in % after 21 days against PANDI,[9]; 17.5 g/ha a.s.,95%
same,Herbicidal action in % after 21 days against PANDI,[9]; 35 g/ha a.s.,95%
same,Herbicidal action in % after 21 days against CCHEC,[10]; 17.5 g/ha a.s.,50%
same,Herbicidal action in % after 21 days against CCHEC,[10]; 35 g/ha a.s.,60%
"CCC(CC)Nc1c([N+](=O)[O-])cc(C)c(C)c1[N+](=O)[O-] [Pendimethalin, reference compound]",Herbicidal action in % after 20 days against LOLMU,"[3]; 250 g/ha a.s., Use Example 10",0%
same,Herbicidal action in % after 20 days against ALOMY,"[4]; 250 g/ha a.s., Use Example 10",30%
same,Herbicidal action in % after 20 days against ALOMY,[11]; 500 g/ha a.s.,65%
same,Herbicidal action in % after 20 days against ALOMY,[11]; 1000 g/ha a.s.,75%
same,Herbicidal action in % after 20 days against LOLMU,[12]; 500 g/ha a.s.,70%
same,Herbicidal action in % after 20 days against LOLMU,[12]; 1000 g/ha a.s.,75%
same,Herbicidal action in % after 20 days against SETVI,"[7]; 500 g/ha a.s., Use Example 17",90%
same,Herbicidal action in % after 20 days against SETVI,"[7]; 1000 g/ha a.s., Use Example 17",95%
Cn1nc(C(F)(F)F)c(CS(=O)(=O)C2=NOC(C)(C)C2)c1OC(F)F [Pyroxasulfone],Herbicidal action in % after 21 days against LOLMU,"[3]; 25 g/ha a.s., Use Example 11",90%
same,Herbicidal action in % after 20 days against ECHCG,[13]; 6.25 g/ha a.s.,55%
same,Herbicidal action in % after 20 days against ECHCG,[13]; 13 g/ha a.s.,85%
same,Herbicidal action in % after 20 days against BRAPL,[14]; 12.5 g/ha a.s.,40%
same,Herbicidal action in % after 20 days against BRAPL,[14]; 25 g/ha a.s.,75%
same,Herbicidal action in % after 20 days against DIGSA,[15]; 6.25 g/ha a.s.,70%
same,Herbicidal action in % after 20 days against DIGSA,[15]; 13 g/ha a.s.,95%
same,Herbicidal action in % after 21 days against SETVI,[16],100%
same,Herbicidal action in % after 21 days against LAMPU,"[5]; 25 g/ha a.s., Use Example 11",55%
same,Herbicidal action in % after 20 days against SETFA,"[17]; 6.25 g/ha a.s., Use Example 22",75%
same,Herbicidal action in % after 20 days against SETFA,"[17]; 12.5 g/ha a.s., Use Example 12",75%
same,Herbicidal action in % after 20 days against SETFA,"[17]; 13 g/ha a.s., Use Example 22",98%
same,Herbicidal action in % after 20 days against SETFA,"[17]; 25 g/ha a.s., Use Example 12",98%
same,Herbicidal action in % after 20 days against SOLNI,[18]; 6.25 g/ha a.s.,40%
same,Herbicidal action in % after 20 days against SOLNI,[18]; 13 g/ha a.s.,85%
